“Also recorded” adds a separate entry of the source. Read-outs that look alike come from different tables or passages of the source.
Columns and labels:
SiOBP15 = SiOBP15 (Solenopsis invicta, UniProt F1DI94); experiment: 1-NPN fluorescent binding / competition (displacement) assay, purified SiOBP15; details: for binding to SiOBP15 (in words): 1-NPN competition, SiOBP15 alone
Method: (§1) The ORFs corresponding to SiOBP15, SiApoLp-III and SiFABP5 were separately cloned into the pET28a expression vector as His-tag fusion proteins. The integrity of plasmid constructs was verified by sequencing and plasmids were transformed into the Escherichia coli BL21 strain for heterologous protein expression. Proteins were purified using a nickel affinity (NI) resin (Ni-Sepharose Cl-6B agarose) according to the manufacturer’s protocol. Purified proteins were analysed by SDS–PAGE for purity and further confirmed by western blotting using an anti-His tag antibody as the probe. His-tags were removed by protease cleavage, and after determining final protein concentrations, aliquots of the purified protein samples were maintained at −80°C. Protein–protein interactions between SiOBP15 and SiApoLp-III and SiOBP15 and SiFABP5 were analysed using open surface plasmon resonance (SPR) by coupling the SiOBP15 protein (ligand) to a COOH chip until saturation. Purified SiFABP5 and SiApoLp-III proteins (analytes) were then added to analyse the kinetics of the interaction between these proteins. Binding kinetics were analysed by titration of the proteins. All experiments were performed three times with the same ‘chip’, and the entire experiment was repeated with three independent COOH-SiOBP15 chip. Dissociation constants were calculated using TraceDrawer (Ridgeview Instruments ab, Sweden) with a one-to-one interaction model.
(§2) N-phenyl-1-naphthylamine (1-NPN) was used as a probe for competition (displacement) based fluorescent binding assays as previously described. Samples were analysed using a Hitachi F-2000 fluorescence spectrophotometer at an excitation wavelength of 350 nm and an emission wavelength of 420 nm. The binding constant of the purified proteins to 1-NPN was determined over a substrate concentration range from 2 to 20 μM using 1.0 μM protein in 10 mM HEPES, 100 mM NaCl buffer, pH 7.5. Subsequent competition/displacement assays using test ligands were performed using a concentration of 2 μM 1-NPN, 2 μM protein and 2−40 μM test ligand. Dissociation constants (Kd) for 1-NPN were calculated by Scatchard plot analyses using GraphPad Prism 8 Software (GraphPad, La Jolla, CA, USA). The dissociation constants of test ligands (Kapp) in 1-NPN competition assays were calculated using the concentration of test ligand required to displace 50% of the 1-NPN signal (IC50) values using the following equation: Kapp = (IC50)/(1 + (1 − NPN)/K1 – NPN).

SiFABP5 = SiFABP5 (Solenopsis invicta, UniProt Z9HHL8OTK9); experiment: 1-NPN fluorescent binding / competition assay, purified SiFABP5; details: 1-NPN displacement; 2 μM 1-NPN, 2 μM protein; read-out: Kapp, competition, SiFABP5
Method: as §1, with “His-tags were removed by protease cleavage, and after determining final protein concentrations, aliquots of the purified protein samples were maintained at −80°C.” left out, “Purified SiFABP5 and SiApoLp-III proteins (analytes) were then added to analyse the kinetics of the interaction between these proteins.” left out, “All experiments were performed three times with the same ‘chip’, and the entire experiment was repeated with three independent COOH-SiOBP15 chip.” left out
(§3) N-phenyl-1-naphthylamine (1-NPN) was used as a probe for competition (displacement) based fluorescent binding assays as previously described. Samples were analysed using a Hitachi F-2000 fluorescence spectrophotometer at an excitation wavelength of 350 nm and an emission wavelength of 420 nm. […]

SiOBP15 + SiFABP5 = SiOBP15 + SiFABP5 (Solenopsis invicta, UniProt F1DI94+Z9HHL8OTK9); experiment: 1-NPN fluorescent binding / competition assay, SiOBP15 co-incubated with SiFABP5; details: 1-NPN displacement; co-incubation of SiOBP15 with SiFABP5; read-out: Kapp, competition, SiOBP15 + SiFABP5
Method: as §1, with “His-tags were removed by protease cleavage, and after determining final protein concentrations, aliquots of the purified protein samples were maintained at −80°C.” left out, “Purified SiFABP5 and SiApoLp-III proteins (analytes) were then added to analyse the kinetics of the interaction between these proteins.” left out, “All experiments were performed three times with the same ‘chip’, and the entire experiment was repeated with three independent COOH-SiOBP15 chip.” left out
as §3

SiOBP15 + SiApoLp III = SiOBP15 + SiApoLp III (Solenopsis invicta, UniProt F1DI94); experiment: 1-NPN fluorescent binding / competition assay, SiOBP15 co-incubated with SiApoLp-III
Method: as §1, §2

S. invicta workers = experiment: Dismemberment behavioural assay; type: in vivo, Solenopsis invicta; details: for dismemberment behaviour towards freeze-killed ants treated with the compound: healthy / untreated and GFP-RNAi workers, compared to freeze-killed control ants; for effect on behaviour: corpse-dismemberment of freeze-killed conspecifics treated with the chemical; for corpse dismemberment, RNAi targeting SiOBP15 + SiApoLp-III: dual RNAi; for corpse dismemberment, RNAi targeting SiOBP15 + SiApoLp-III / corpse dismemberment, RNAi targeting SiApoLp-III / corpse dismemberment, RNAi targeting SiFABP5 / corpse dismemberment, RNAi targeting SiOBP15 / corpse dismemberment, GFP RNAi (control) workers: freeze-killed corpses + chemical; for corpse dismemberment, RNAi targeting SiOBP15 + SiApoLp-III / corpse dismemberment, RNAi targeting SiApoLp-III / corpse dismemberment, RNAi targeting SiFABP5 / corpse dismemberment, RNAi targeting SiOBP15: compared to freeze-killed workers treated with the same chemical; for corpse dismemberment, GFP RNAi (control) workers: compared to freeze-killed, no additions
Method: Fresh corpses of workers killed by either rapid immersion in liquid nitrogen were collected and maintained at −80°C until use. Infection was performed by immersing workers for 5 s in 1 × 10^8 suspensions of fungal conidia. Infected workers were kept in isolated boxes until mortality (3–4 days) and were then used immediately for dismemberment assays. Each technical replicate of a dismemberment assay used five workers selected from different treatment groups (i.e. killed by freezing, killed by B. bassiana or subjected to another treatment as indicated). Of the five ‘killed’ workers, […] near the edge of the container in a ‘+’ pattern of a plastic container (9 cm diameter) and one in the centre. To each container was added 15 healthy workers or 15 workers treated as described below (e.g. RNAi treated). Containers contained an Eppendorf tube with a sterile solution of 5% sucrose. Corpse-dismemberment behaviour was assessed every 12 h for three consecutive days, and corpse limbs or other parts that were dismembered were counted. The corpse-dismemberment percentage was calculated by dividing the total number of dismembered parts (5 corpses × 10 body parts/each cage/3 days). Each experiment contained three technical replicates, and the entire experiment was repeated at least three times.
The specific dsRNA primers used in this study were synthesized using an in vitro transcription T7 kit (TAKARA, Dalian, China; electronic supplementary material, table S1). dsRNA concentrations were measured using a NanoVue Plus spectrophotometer (GE Healthcare Life Sciences, Little Chalfont, UK). In total, 50 nl of dsRNA of either the target genes or DsRNA-GFP (control) at indicated concentrations (up to 3000 ng μl^−1) were injected into each worker. Dismemberment assays were performed as above with three technical replicates, and each experiment was repeated at least three times using three different batches of ants. RNAi efficiencies was analysed by qRT-PCR.

[1] = 1-NPN displacement; co-incubation of SiOBP15 with SiApoLp-III; read-out: Kapp, competition, SiOBP15 + SiApoLp III
[2] = read-out: Kapp, competition, SiOBP15 + SiApoLp III; 1-NPN displacement; co-incubation of SiOBP15 with SiApoLp-III
[3] = 1-NPN displacement, 2 μM 1-NPN, 2 μM protein, 2-40 μM test ligand, read-out: Kapp, competition, SiOBP15

SiOBP15 + SiApoLp III, sequence (F1DI94 entry or part of it): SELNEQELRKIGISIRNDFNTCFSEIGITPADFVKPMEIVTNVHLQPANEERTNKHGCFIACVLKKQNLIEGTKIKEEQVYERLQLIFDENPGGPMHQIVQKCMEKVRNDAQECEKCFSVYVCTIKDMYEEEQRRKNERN
SiOBP15 + SiApoLp III, sequence (Q6B972 entry or part of it, further chain): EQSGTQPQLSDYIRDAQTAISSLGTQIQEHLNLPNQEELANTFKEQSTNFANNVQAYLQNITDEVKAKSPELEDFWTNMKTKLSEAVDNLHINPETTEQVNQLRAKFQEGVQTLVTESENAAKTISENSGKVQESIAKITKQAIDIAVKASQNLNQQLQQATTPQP
SiOBP15, sequence (F1DI94 entry or part of it): as the sequence (F1DI94 entry or part of it) above
SiOBP15 + SiFABP5, sequence (F1DI94 23-162 limits assumed): as the sequence (F1DI94 entry or part of it) above
SiOBP15 + SiFABP5, sequence (Z9HHL8OTK9 1-133): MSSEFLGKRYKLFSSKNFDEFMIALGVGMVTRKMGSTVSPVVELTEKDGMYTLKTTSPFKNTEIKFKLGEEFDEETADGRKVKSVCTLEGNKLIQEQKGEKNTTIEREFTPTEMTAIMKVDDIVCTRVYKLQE
SiFABP5, sequence (Z9HHL8OTK9 1-133): as above

Row | Molecule | binding to SiOBP15 (in words) (SiOBP15) | binding to SiOBP15 incubated with SiApoLp-III (in words) (SiOBP15 + SiApoLp III; 1-NPN competition, complex) | Ki (SiOBP15 + SiApoLp III; [1]) [µM] | dismemberment behaviour towards freeze-killed ants treated with the compound (S. invicta workers) | Ki (SiOBP15; [3]) [µM] | corpse dismemberment, RNAi targeting SiOBP15 + SiApoLp-III (S. invicta workers) | corpse dismemberment, RNAi targeting SiApoLp-III (S. invicta workers) | corpse dismemberment, RNAi targeting SiFABP5 (S. invicta workers) | corpse dismemberment, RNAi targeting SiOBP15 (S. invicta workers) | corpse dismemberment, GFP RNAi (control) workers (S. invicta workers) | other results
1 | 3-octenol | able to bind | – | – | – | – | – | – | – | – | – | Ki (SiFABP5): 15.7 µM; Ki (SiOBP15 + SiFABP5): 12.6 µM
2 | c1ccc(Nc2cccc3ccccc23)cc1 [1-NPN, N-phenyl-1-naphthylamine, reference compound] | – | – | – | – | – | – | – | – | – | – | Kd (SiOBP15; Kd of 1-NPN to SiOBP15 (printed in figure 2C), SiOBP15+NPN, unit inferred): 16.9 µM; Kd (SiOBP15; Kd of 1-NPN to SiOBP15, Scatchard analysis, 1.0 μM protein, 2 to 20 μM 1-NPN): 16.9 µM; Kd (SiOBP15 + SiApoLp III; read-out: dissociation constant of 1-NPN to SiOBP15 + SiApoLp-III; co-incubation; modelled to single 1-NPN binding sites): 18.2 µM
3 | CC(=O)C(C)=O [2,3 butanedione] | binds | limited binding | 70.9 | No significant effects | – | – | – | – | – | – | –
4 | CC1CCOC1=O (stereo not shown) [3-methyltetrahydro-2-furanone] | – | – | – | No significant effects | – | – | – | – | – | – | Ki (SiOBP15): 16 µM; Ki (SiOBP15 + SiApoLp III; [2]): 57.2 µM
5 | CCCCC=CCCO [3-octenol] | – | – | > 500 | – | 15.2 | – | – | – | – | – | –
6 | CC(=O)C(C)O (stereo not shown) [acetoin] | binds | limited binding | 83.3 | No significant effects | 26.5 | – | – | – | – | – | –
7 | CCCCCCCCCCCCCCCCCCCCCC(=O)O [behenic acid] | – | – | – | significant increase; also recorded: induced dismemberment behaviour; also recorded: induces corpse-dismemberment | – | decreased^b | decreased^b | no change^b | slight decrease^b | increased^a | Ki (SiOBP15): 14 µM; Ki (SiOBP15 + SiApoLp III; [2]): 19.3 µM; effect on behaviour (S. invicta workers): induces dismemberment
8 | CCCCC/C=C\C/C=C\CCCCCCCC(=O)O [linoleic acid, cis,cis-9,12-linoleic acid] | able to bind | did not show binding | > 500 | significantly reduced | 25.8 | increased^c | no change^c | increased^c | increased^c | decreased^a | effect on behaviour (S. invicta workers): inhibits dismemberment; dismemberment behaviour towards freeze-killed ants treated with the compound (S. invicta workers; listed as cis, cis-9,12-linoleic acid): inhibit this behaviour; dismemberment behaviour towards freeze-killed ants treated with the compound (S. invicta workers; listed as cis,cis-9,12-linoleic acid): significant decrease
9 | C=CC(=C)CCC=C(C)C [myrcene] | – | – | – | No significant effects | – | – | – | – | – | – | –
10 | CCCCCCCC/C=C\CCCCCCCC(=O)O [oleic acid] | able to bind | did not show binding | – | significant decrease; also recorded: reduced dismemberment behaviour; also recorded: inhibit this behaviour | – | no change^d | no change^d | no change^d | no change^d | decreased^a | Ki (SiOBP15): 15.5 µM; Ki (SiOBP15 + SiApoLp III; [2]): > 500 µM; effect on behaviour (S. invicta workers): inhibits dismemberment
11 | CCCCCCCCCCC/C=C/CCCCC(=O)O [trans-6-octadecenoic acid] | – | – | – | No significant effects | – | – | – | – | – | – | –
12 | CCCCCCCC/C=C/CCCCCCCCCC(=O)O [trans-11-eicosenoic acid] | No binding | – | > 500 | No significant effects; also recorded: did not alter dismemberment behaviour | > 500 | no change^e | no change^e | no change^e | no change^e | no change^a | –

Reference: article PMC11813584, “An odorant-binding protein functions in fire ant social immunity interfacing with innate immunity” (Open Biology, 2025)
